Laboratory results: patent US11053204B2, “Pyrimidinyloxy benzene derivatives as herbicides” (FMC Corporation, priority 2015, dated 2021)

Key:
Test in all cases: Test C flooded paddy test, plant response rating
Assay type in all cases: in vivo
Details in all cases: flood, scale 0 to 100
[1] = test system: barnyardgrass (Echinochloa crus-galli)
From the text: (§1) At the same time, plants selected from these crop and weed species and also chickweed (common chickweed, Stellaria media), buckwheat, wild (wild buckwheat, Polygonum convolvulus), wild mustard (Sinapis arvensis), field poppy (Papaver rhoeas), field violet (Viola arvensis), geranium, cutleaf (cutleaf geranium, Geranium dissectum), Canada thistle (Cirsium arvense), and speedwell (bird's-eye speedwell, Veronica persica), were planted in pots containing Sunshine Redi-Earth® planting medium comprising spaghnum peat moss, vermiculite, starter nutrients and dolomitic limestone and treated with postemergence applications of test chemicals formulated in the same manner. Plants ranged in height from 2 to 18 cm (1- to 4-leaf stage) for postemergence treatments. Treated plants and controls were maintained in a greenhouse for 13 to 15 d, after which time all species were compared to controls and visually evaluated. Plant response ratings, summarized in Table C, are based on a scale of 0 to 100 where 0 is no effect and 100 is complete control. A dash (-) response means no test result.
(§2) Plant species in the flooded paddy test consisted of rice (Oryza sativa), sedge, umbrella (small-flower umbrella sedge Cyperus difformis), ducksalad (Heteranthera limosa), and barnyardgrass (Echinochloa crus-galli) grown to the 2-leaf stage for testing. At time of treatment, test pots were flooded to 3 cm above the soil surface, treated by application of test compounds directly to the paddy water, and then maintained at that water depth for the duration of the test.

[2] = test system: sedge, umbrella (small-flower umbrella sedge Cyperus difformis)
From the text: as §1, §2

[3] = test system: ducksalad (Heteranthera limosa)
From the text: as §1, §2

rice (Oryza sativa) = test system: rice (Oryza sativa)
From the text: as §1, §2

O=C(CCC(F)(F)F)c1c(Br)cccc1Oc1ncc(Cl)cn1 [Compound 92]
Barnyardgrass plant response rating ([1]; 31 g ai/ha): 0
Barnyardgrass plant response rating ([1]; 62 g ai/ha): 0
Barnyardgrass plant response rating ([1]; 125 g ai/ha): 20
Barnyardgrass plant response rating ([1]; 250 g ai/ha): 40
Sedge, Umbrella plant response rating ([2]; 31 g ai/ha): 20
Sedge, Umbrella plant response rating ([2]; 62 g ai/ha): 60
Sedge, Umbrella plant response rating ([2]; 125 g ai/ha): 90
Sedge, Umbrella plant response rating ([2]; 250 g ai/ha): 100
Ducksalad plant response rating ([3]; 31 g ai/ha): 30
Ducksalad plant response rating ([3]; 62 g ai/ha): 60
Ducksalad plant response rating ([3]; 125 g ai/ha): 95
Ducksalad plant response rating ([3]; 250 g ai/ha): 100
Rice plant response rating (rice (Oryza sativa); 31 g ai/ha): 10
Rice plant response rating (rice (Oryza sativa); 62 g ai/ha): 15
Rice plant response rating (rice (Oryza sativa); 125 g ai/ha): 15
Rice plant response rating (rice (Oryza sativa); 250 g ai/ha): 15

C=C(Br)COC(=O)c1c(Br)cccc1Oc1ncc(Cl)cn1 [Compound 61]
Barnyardgrass plant response rating ([1]; 31 g ai/ha): 0
Barnyardgrass plant response rating ([1]; 62 g ai/ha): 0
Barnyardgrass plant response rating ([1]; 125 g ai/ha): 20
Barnyardgrass plant response rating ([1]; 250 g ai/ha): 40
Sedge, Umbrella plant response rating ([2]; 31 g ai/ha): 80
Sedge, Umbrella plant response rating ([2]; 62 g ai/ha): 80
Sedge, Umbrella plant response rating ([2]; 125 g ai/ha): 85
Sedge, Umbrella plant response rating ([2]; 250 g ai/ha): 85
Ducksalad plant response rating ([3]; 31 g ai/ha): 50
Ducksalad plant response rating ([3]; 62 g ai/ha): 75
Ducksalad plant response rating ([3]; 125 g ai/ha): 90
Ducksalad plant response rating ([3]; 250 g ai/ha): 90
Rice plant response rating (rice (Oryza sativa); 31 g ai/ha): 20
Rice plant response rating (rice (Oryza sativa); 62 g ai/ha): 20
Rice plant response rating (rice (Oryza sativa); 125 g ai/ha): 20
Rice plant response rating (rice (Oryza sativa); 250 g ai/ha): 20
